Key:
P2Y purinoceptor 6 = P2Y purinoceptor 6 (Homo sapiens, UniProt Q15077); assay: Agonist activity at human P2Y6 receptor expressed in human 1321N1 cells assessed as [3H]inositol phosphate accumulation by scintillation proximity assay; assay type: functional, cell-based
P2Y purinoceptor 2 = P2Y purinoceptor 2 (Homo sapiens, UniProt P41231); assay: Agonist activity at human P2Y2 receptor expressed in human 1321N1 cells assessed as [3H]inositol phosphate accumulation by scintillation proximity assay; assay type: functional, cell-based
P2Y purinoceptor 4 = P2Y purinoceptor 4 (Homo sapiens, UniProt P51582); assay: Agonist activity at human P2Y4 receptor expressed in human 1321N1 cells assessed as [3H]inositol phosphate accumulation by scintillation proximity assay; assay type: functional, cell-based
Homo sapiens = organism: Homo sapiens; assay: Selectivity for human P2Y2 receptor over human P2Y4 receptor

Chain of P2Y purinoceptor 2 (P41231 whole entry): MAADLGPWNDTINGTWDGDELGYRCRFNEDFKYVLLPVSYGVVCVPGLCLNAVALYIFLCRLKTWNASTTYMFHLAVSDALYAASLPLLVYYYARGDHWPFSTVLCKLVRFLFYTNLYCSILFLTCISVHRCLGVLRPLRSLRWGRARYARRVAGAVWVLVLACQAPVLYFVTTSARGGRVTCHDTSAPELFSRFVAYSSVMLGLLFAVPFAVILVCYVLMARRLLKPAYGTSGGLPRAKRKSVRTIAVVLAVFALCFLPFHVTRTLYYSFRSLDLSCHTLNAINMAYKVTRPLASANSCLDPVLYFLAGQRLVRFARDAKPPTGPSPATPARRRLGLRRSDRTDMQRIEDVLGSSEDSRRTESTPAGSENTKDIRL
Chain of P2Y purinoceptor 6 (Q15077 whole entry): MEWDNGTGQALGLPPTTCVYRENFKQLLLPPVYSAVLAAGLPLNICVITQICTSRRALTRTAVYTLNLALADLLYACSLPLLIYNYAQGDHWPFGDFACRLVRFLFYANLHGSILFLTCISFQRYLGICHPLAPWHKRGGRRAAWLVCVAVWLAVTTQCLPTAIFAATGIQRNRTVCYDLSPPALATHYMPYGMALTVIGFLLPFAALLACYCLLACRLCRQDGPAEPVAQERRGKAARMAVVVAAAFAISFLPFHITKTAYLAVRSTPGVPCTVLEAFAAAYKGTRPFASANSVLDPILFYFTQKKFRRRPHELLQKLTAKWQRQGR
Chain of P2Y purinoceptor 4 (P51582 whole entry): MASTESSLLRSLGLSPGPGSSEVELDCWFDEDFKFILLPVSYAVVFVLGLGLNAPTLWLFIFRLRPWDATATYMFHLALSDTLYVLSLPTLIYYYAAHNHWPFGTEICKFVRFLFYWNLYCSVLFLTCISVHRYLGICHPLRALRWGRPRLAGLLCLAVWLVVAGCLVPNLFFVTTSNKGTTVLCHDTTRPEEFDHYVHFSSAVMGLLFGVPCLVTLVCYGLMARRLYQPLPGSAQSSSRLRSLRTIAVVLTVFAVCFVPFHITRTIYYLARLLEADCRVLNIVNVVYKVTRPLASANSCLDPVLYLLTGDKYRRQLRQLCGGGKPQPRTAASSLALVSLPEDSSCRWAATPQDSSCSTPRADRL

Row | SMILES | EC50 (P2Y purinoceptor 6) [µM] | EC50 (P2Y purinoceptor 2) [µM] | EC50 (P2Y purinoceptor 4) [µM] | Ratio EC50 (Homo sapiens)
1 | O=c1ccn([C@@H]2O[C@H](COP(=O)(O)OP(=O)(O)C(F)(F)P(=O)(O)OP(=O)(O)OC[C@H]3O[C@@H](n4ccc(=O)[nH]c4=O)[C@H](O)[C@@H]3O)[C@@H](O)[C@H]2O)c(=O)[nH]1 | > 10 | 2.27 | > 10 | 
2 | N#CCCOP(=O)(O)OP(=O)(O)OP(=O)(O)OP(=O)(O)OC[C@H]1O[C@@H](n2ccc(=O)[nH]c2=O)[C@H](O)[C@@H]1O | > 10 | 1.7 | 1.96 | 
3 | O=c1ccn([C@@H]2O[C@H](COP(=O)(O)OP(=O)(O)OP(=O)(O)OP(=O)(O)OC[C@H]3OC(O)C[C@@H](O)[C@@H]3O)[C@@H](O)[C@H]2O)c(=O)[nH]1 (stereo not given in full) | > 10 | 3.54 | 4.32 | 
4 | O=c1ccn([C@@H]2O[C@H](COP(=O)(O)OP(=O)(O)OP(=O)(O)OP(=O)(O)O[C@H]3O[C@H](CO)[C@H](O)[C@H](O)[C@H]3O)[C@@H](O)[C@H]2O)c(=O)[nH]1 | 8.19 | 4.85 | 1.77 | 
5 | O=c1ccn([C@@H]2O[C@H](COP(=O)(O)OP(=O)(O)OP(=O)(O)OP(=O)(O)OC3CCCCC3)[C@@H](O)[C@H]2O)c(=O)[nH]1 | > 10 | 5.86 | > 10 | 
6 | O=c1ccn([C@@H]2O[C@H](COP(=O)(O)OP(=O)(O)OP(=O)(O)OP(=O)(O)Oc3ccccc3)[C@@H](O)[C@H]2O)c(=O)[nH]1 |  | 1.89 |  | 
7 | O=c1ccn([C@@H]2O[C@H](COP(=O)(O)OP(=O)(O)OP(=O)(O)OC[C@H]3O[C@@H](n4ccc(=O)[nH]c4=O)[C@H](O)[C@@H]3O)[C@@H](O)[C@H]2O)c(=O)[nH]1 | 0.27 | 1.31 | 0.87 | 
8 | O=c1ccn([C@@H]2O[C@H](COP(=O)(O)OP(=O)(O)OP(=O)(O)OP(=O)(O)OC[C@@H]3OC(O)[C@@H](O)[C@H]3O)[C@@H](O)[C@H]2O)c(=O)[nH]1 (stereo not given in full) | > 10 | 1.88 | 4.78 | 
9 | O=c1ccn([C@@H]2O[C@H](COP(=O)(O)OP(=O)(O)OP(=O)(O)O)[C@@H](O)[C@H]2O)c(=O)[nH]1 [URIDINE TRIPHOSPHATE] | > 10 | 0.06 | 0.09 | 
10 | Nc1nc2c(ncn2[C@H]2C[C@H](O)[C@@H](COP(=O)(O)OP(=O)(O)OP(=O)(O)OP(=O)(O)OC[C@H]3O[C@@H](n4ccc(=O)[nH]c4=O)[C@H](O)[C@@H]3O)O2)c(=O)[nH]1 | 1.03 | 0.14 | 0.54 | 
11 | Nc1ccn([C@H]2C[C@H](O)[C@@H](COP(=O)(O)OP(=O)(O)OP(=O)(O)OP(=O)(O)OC[C@H]3O[C@@H](n4ccc(=O)[nH]c4=O)[C@H](O)[C@@H]3O)O2)c(=O)n1 [DENUFOSOL] | 0.95 | 0.14 | 0.14 | 
12 | O=c1ccn([C@@H]2O[C@H](COP(=O)(O)OP(=O)(O)OP(=O)(O)OC[C@H]3O[C@@H](n4cc(I)c(=O)[nH]c4=O)[C@H](O)[C@@H]3O)[C@H]3OC(Cc4ccccc4)O[C@H]32)c(=O)[nH]1 (stereo not given in full) | 5.49 | 9.97 |  | 
13 | O=c1ccn([C@@H]2O[C@H](COP(=O)(O)OP(=O)(O)C(Cl)(Cl)P(=O)(O)OP(=O)(O)OC[C@H]3O[C@@H](n4ccc(=O)[nH]c4=O)[C@H](O)[C@@H]3O)[C@@H](O)[C@H]2O)c(=O)[nH]1 |  | 7.77 |  | 
14 | O=c1[nH]c(=S)ccn1[C@@H]1O[C@H](COP(=O)(O)OP(=O)(O)OP(=O)(O)OP(=O)(O)OC[C@H]2O[C@@H](n3ccc(=S)[nH]c3=O)[C@H](O)[C@@H]2O)[C@@H](O)[C@H]1O | 2.03 | 0.03 | 0.08 | 
15 | COP(=O)(O)OP(=O)(O)OP(=O)(O)OP(=O)(O)OC[C@H]1O[C@@H](n2ccc(=O)[nH]c2=O)[C@H](O)[C@@H]1O | > 10 | 3.95 | 2.7 | 
16 | O=c1ccn([C@@H]2O[C@H](COP(=O)(O)OP(=O)(O)OP(=O)(O)OP(=O)(O)OC[C@H]3OC(O)[C@@H](O)[C@@H](O)[C@@H]3O)[C@@H](O)[C@H]2O)c(=O)[nH]1 (stereo not given in full) | > 10 | > 10 | > 10 | 

Results, then the compound that gave them:

Row | EC50 (P2Y purinoceptor 6) [µM] | EC50 (P2Y purinoceptor 2) [µM] | EC50 (P2Y purinoceptor 4) [µM] | Ratio EC50 (Homo sapiens) | SMILES
17 | > 10 | 1.74 | 4.64 |  | NC(=O)N[C@@H]1[C@H](O)[C@@H](COP(=O)(O)OP(=O)(O)OP(=O)(O)O)O[C@H]1n1ccc(=O)[nH]c1=O
18 | 6.46 | 0.07 | 0.28 |  | O=c1[nH]c(=S)ccn1[C@@H]1O[C@H](COP(=O)(O)OP(=O)(O)OP(=O)(O)OP(=O)(O)O)[C@@H](O)[C@H]1O
19 |  | 0.14 | 7.93 |  | O=c1ccn([C@@H]2O[C@H](COP(=O)(O)OP(=O)(O)OP(=O)(O)O)[C@@H](O)[C@@H]2O)c(=S)[nH]1
20 | 5.15 | 1.63 | 8.11 |  | O=c1ccn([C@@H]2O[C@H](COP(=O)(O)OP(=O)(O)C(F)(F)P(=O)(O)O)[C@@H](O)[C@H]2O)c(=S)[nH]1
21 |  | 1.45 | 1.26 |  | C[C@@]1(O)[C@H](O)[C@@H](COP(=O)(O)OP(=O)(O)OP(=O)(O)O)O[C@H]1n1ccc(=O)[nH]c1=O
22 | 6.83 | 0.6 | 5.52 |  | O=c1ccn([C@@H]2O[C@H](COP(=O)(O)OP(=O)(O)OP(=O)(O)OP(=O)(O)O)[C@@H](O)[C@H]2O)c(=S)[nH]1
23 | 0.61 |  |  |  | Nc1cn([C@@H]2O[C@H](COP(=O)(O)OP(=O)(O)O)[C@@H](O)[C@H]2O)c(=O)[nH]c1=O
24 | 7.33 | 0.57 | 5.27 |  | O=c1ccn([C@@H]2O[C@H](COP(=O)(O)OP(=O)(O)OP(=O)(O)OP(=O)(O)OP(=O)(O)O)[C@@H](O)[C@H]2O)c(=S)[nH]1
25 | 0.66 |  |  |  | O=c1ccn([C@@H]2O[C@H](COP(=O)(O)CP(=O)(O)O)[C@@H](O)[C@H]2O)c(=O)[nH]1
26 | 4.7 |  |  |  | NC(=O)N[C@@H]1[C@H](O)[C@@H](COP(=O)(O)OP(=O)(O)O)O[C@H]1n1ccc(=O)[nH]c1=O
27 | > 10 | 0.91 | 5.35 |  | CSc1ccn([C@@H]2O[C@H](COP(=O)(O)OP(=O)(O)OP(=O)(O)O)[C@@H](O)[C@H]2O)c(=S)n1
28 |  | 3.33 | 6.3 |  | O=c1ccn([C@@H]2O[C@H](COP(=O)(O)OP(=O)(O)OP(=O)(O)OP(=O)(O)OC[C@@H]3O[C@@](O)(CO)[C@H](O)[C@H]3O)[C@@H](O)[C@H]2O)c(=O)[nH]1
29 | > 10 | 2.51 |  |  | O=c1ccn([C@@H]2O[C@H](COP(=O)(O)OP(=O)(O)C(Cl)(Cl)P(=O)(O)O)[C@@H](O)[C@H]2O)c(=S)[nH]1
30 | 7.56 | 2.61 | 4.64 |  | O=c1ccn([C@@H]2O[C@H](COP(=O)(O)OP(=O)(O)OP(=O)(O)OP(=O)(O)O)[C@@H](O)[C@H]2O)c(=O)[nH]1
31 | 1.05 | 0.08 | 0.71 | 9 | Nc1ccn([C@H]2C[C@H](O)[C@@H](COP(=O)(O)OP(=O)(O)OP(=O)(O)OP(=O)(O)OC[C@H]3O[C@@H](n4ccc(=O)[nH]c4=S)[C@H](O)[C@@H]3O)O2)c(=O)n1
32 | 7.83 | 0.3 | 2.06 |  | O=c1ccn([C@@H]2O[C@H](COP(=O)(O)OP(=O)(O)OP(=O)(O)OP(=O)(O)O[C@H]3O[C@H](CO)[C@@H](O)[C@H](O)[C@H]3O)[C@@H](O)[C@H]2O)c(=O)[nH]1
33 | 8.19 | 1.87 | 1.12 |  | O=c1ccn([C@@H]2O[C@H](COP(=O)(O)OP(=O)(O)OP(=O)(O)OP(=O)(O)OCC(O)CO)[C@@H](O)[C@H]2O)c(=O)[nH]1 (stereo not given in full)
